In patent US20250163072A1, “MACROCYCLIC COMPOUNDS FOR THE TREATMENT OF CANCER” (Hoffmann-La Roche Inc., priority 2021, published 2025):

Tests used:
KRAS G12C-BRAF complex = KRAS G12C-BRAF complex (Homo sapiens (Human), UniProt P01116+P62937, G12C); experiment: KRAS-BRAF with CYPA (50 nM) interaction assay (TR-FRET), G12C; format: binding; conditions: GMPPNP loaded 6His-KRAS, GST-BRAF RBD
Procedure, shortened: (§1)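 Buffer 25 mM HEPES pH 7.4, 100 mM NaCl, 5 mM MgCl2, 10 μM GMPPNP, 0.1% BSA; final 50 nM tagless CYPA, 6.25 nM GMPPNP-loaded 6His-KRAS mutant, 1 nM GST-BRAF RBD. Compounds 16-point 3-fold series from 10 μM, 3 h; anti-6His-XL665/anti-GST-Tb added, 1.5 h; 665/615 nm ratio decrease versus DMSO.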

[1] = molecular target: KRAS G12V binding to BRAF (Homo sapiens (Human), UniProt P01116+P62937, G12V); experiment: KRAS-BRAF with CYPA (50 nM) interaction assay (TR-FRET), G12V; conditions: GMPPNP loaded 6His-KRAS, GST-BRAF RBD
Procedure, shortened: as §1

[2] = tested on: KRAS G12C in NCI-H358 cells; experiment: pERK inhibition assay, NCI-H358; format: cell-based, human; conditions: Homo sapiens, 4 hours incubation
Procedure, shortened: (§2)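 NCI-H358, AGS and SW620 cells in RPMI-1640/10% FBS were plated overnight, then exposed to compound (0.5% DMSO final) for 4 h. After fixation and permeabilization, phospho-ERK was quantified by in-cell ELISA (HRP secondary, TMB, OD450); IC50 from a 4-parameter sigmoidal fit.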

KRAS G12D in AGS cells = experiment: pERK inhibition assay, AGS; format: cell-based, human; conditions: Homo sapiens, 4 hours incubation
Procedure, shortened: as §2

KRAS G12V in SW620 = experiment: pERK inhibition assay, SW620; format: cell-based, human; conditions: Homo sapiens, SW-620, SW620 cells, 4 hours incubation
Procedure, shortened: as §2

NCI-H358 cells = experiment: Cell viability assay, NCI-H358; format: cell-based, human; conditions: Homo sapiens, NCI-H358, 72 hours, Cell Counting Kit-8, read-out: G12C IC50
Procedure, shortened: (§3)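 Cells were plated at 5,000 (NCI-H358) or 2,000 (AGS, SW620) per well and incubated overnight. They were then treated with compound in 0.5% DMSO for 72 h. Viability was read with CCK-8 as OD450 minus OD650 after 2 h, and IC50 came from a 4-parameter sigmoidal fit.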

AGS cells = experiment: Cell viability assay, AGS; format: cell-based, human; conditions: Homo sapiens, 72 hours, Cell Counting Kit-8, read-out: G12D IC50
Procedure, shortened: as §3

SW620 cells = experiment: Cell viability assay, SW620; format: cell-based, human; conditions: Homo sapiens, SW-620, SW620, 72 hours, Cell Counting Kit-8, read-out: G12V IC50
Procedure, shortened: as §3

[3] = Human hepatocytes stability assay; format: in vitro ADME
Procedure, shortened: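 Compound at 1 μM incubated with cryopreserved suspension hepatocytes (1×10^6 cells/mL) in supplemented Williams' E Medium at 37° C, 5% CO2, with shaking. Reactions quenched with methanol at 2, 10, 20, 40, 60 and 120 min; parent depletion followed by LC-MS/MS.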

KRAS G12V binding to BRAF, sequence (P01116-2 other isoform, or with tags, fused parts or gaps G12V): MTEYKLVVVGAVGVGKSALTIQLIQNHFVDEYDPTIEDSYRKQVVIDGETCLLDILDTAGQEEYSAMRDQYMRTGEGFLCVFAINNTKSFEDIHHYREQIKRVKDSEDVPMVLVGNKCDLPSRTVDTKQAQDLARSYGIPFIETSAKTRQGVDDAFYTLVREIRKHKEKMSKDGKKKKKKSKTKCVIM
KRAS G12V binding to BRAF, sequence (P62937 whole entry): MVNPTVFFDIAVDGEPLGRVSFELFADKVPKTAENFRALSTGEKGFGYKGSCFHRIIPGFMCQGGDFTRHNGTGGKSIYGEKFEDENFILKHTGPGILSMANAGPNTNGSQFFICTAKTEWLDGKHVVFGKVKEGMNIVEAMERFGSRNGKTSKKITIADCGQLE
KRAS G12C-BRAF complex, sequence (P01116-2 other isoform, or with tags, fused parts or gaps G12C): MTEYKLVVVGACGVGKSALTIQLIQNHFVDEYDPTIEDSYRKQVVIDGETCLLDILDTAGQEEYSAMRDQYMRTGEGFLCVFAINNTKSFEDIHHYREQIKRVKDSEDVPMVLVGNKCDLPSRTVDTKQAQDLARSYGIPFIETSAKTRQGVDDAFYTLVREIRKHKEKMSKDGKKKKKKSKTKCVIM
KRAS G12C-BRAF complex, sequence (P62937 whole entry): as the sequence (P62937 whole entry) above

## CO[C@@H](C)c1ncc(N2CCOCC2)cc1-c1c2c3cc(ccc3n1CC(F)(F)F)-c1csc(n1)C[C@H](NC(=O)[C@H](C(C)C)N(C)C(=O)[C@H]1CCN(C(=O)[C@H](F)Cl)C1)C(=O)N1CCC[C@H](N1)C(=O)OCC(C)(C)C2 (atropisomer, axis not shown; (M)) [Example 25, (3S)-1-[(2R)-2-chloro-2-fluoro-acetyl]-N-[(1S)-1-[[(7S,13S)-(20M)-20-[2-[(1S)-1-methoxyethyl]-5-morpholino-3-pyridyl]-17,17-dimethyl-8,14-dioxo-21-(2,2,2-trifluoroethyl)-15-oxa-4-thia-9,21,27,28-tetrazapentacyclo[17.5.2.12,5.19,13.022,26]octacosa-1(25),2,5(28),19,22(26),23-hexaen-7-yl]carbamoyl]-2-methyl-propyl]-N-methyl-pyrrolidine-3-carboxamide]
KRAS G12C-BRAF complex
  IC50: 32 nM
[1]
  IC50: > 10000 nM
[2]
  IC50: 1 nM
KRAS G12D in AGS cells
  IC50: 13 nM
KRAS G12V in SW620
  IC50: 3 nM
NCI-H358 cells
  IC50: < 0.6 nM
AGS cells
  IC50: 94 nM
SW620 cells
  IC50: 6 nM
[3]; 1 μM compound, human hepatocytes 1×10^6 cells/mL
  CL_hep (Human): 9.8 mL/min/kg
[3]; human hepatocytes
  Clearance Category: medium (16.24<CL_hep (mL/min/kg)>6.96 is medium clearance)
